Where two headings read alike, the source gives them in different places.
Assays:
ESR1 = ESR1 mutations in cell-free DNA (SafeSEQ Breast Cancer Panel); assay type: in vivo, human
Method: All immunohistochemistry analyses from tumor samples were performed at ICON Central Laboratories (Farmingdale, NY, USA) using the Ventana® BenchMark ULTRA™ automated staining instrument (Oro Valley, AZ, USA). Positive- and negative-control tissue and negative reagent controls were run for each marker, as well as low-ER controls for each run. Estrogen receptor levels were estimated as the number of positive tumor nuclei divided by the total number of tumor nuclei, expressed as a percentage for each receptor type. Evaluation of Ki67 was performed in accordance with Ki67 Working Group recommendations: 1) only nuclear staining was assessed as positive; 2) in cases of tumor heterogeneity (hot spots), 2 counts were performed and the average was reported; and 3) lymphocyte-rich areas were avoided when possible. Presence of activating ESR1 mutations (amino acid regions 370–381, 460–473, and 529–538) and their mutant allele fractions (MAFs) were determined in cell-free DNA (cfDNA), collected at baseline and at 8 weeks on treatment using the SafeSEQ Breast Cancer Panel (Sysmex Inostics, Baltimore, MD, USA).
In patients who underwent biomarker testing, samples collected on cycle 3 day 1 of treatment across all dose levels were compared to baseline samples to assess changes during treatment. […] Additionally, the number of endocrine resistance-associated ESR1-variant mutations (Y537S, Y537 N/C, L536H/P/R, and D538G) were reduced from 106 mutations detected at baseline (in 64 patients with detectable mutations at baseline) to 37 mutations (in 21 patients) after 2 treatment cycles of palazestrant treatment (Supplemental Fig. 2 C).
14 Supplemental Figure 2. Biomarker analyses following treatment with palazestrant.
15 Quantitative analyses were performed on patient tissue and blood samples collected at baseline and
16 cycle 3 day 1 of palazestrant treatment.
17 decreased after treatment with palazestrant compared (P=.041). B) ER Allred scores were decreased
18 after treatment with palazestrant (P=.13). C) Sankey diagram showing the number of mutations detected
19 in cfDNA for each ESR1 variant before and after treatment with palazestrant. N = number of patients in
20 the analysis; n= number of mutations.
21 49 (77%) had at least one mutation become “Not detected” at C3D1.
22 ESR1 mutation detected at C1D1, 43 (67%) had all their detected mutation(s) become “Not detected” at […]

[1] = tested on: ER+/HER2− advanced or metastatic breast cancer; design: method as in ref 41 = [41]; 41. Lin NU, Borges VF, Patel MR, Okera M, Meisel J, Wesolowski R, et al. Results from the phase I/II study of OP-1250, an oral complete estrogen receptor (ER) antagonist (CERAN) and selective ER degra; conditions: cited from earlier work
[2] = of 64 patients with an ESR1 mutation detected at C1D1
[3] = second- or third-line subanalysis, cancers with ESR1 mutations

In the case of `CCCN1CC(Oc2ccc([C@@H]3c4[nH]c5ccccc5c4C[C@@H](C)N3CC(C)(C)F)cc2)C1` [palazestrant, Palazestrant], the “patients with detectable ESR1-variant mutations on treatment” value (ESR1; after 2 treatment cycles, 64 patients at baseline) is reported as 21 patients, the “number of endocrine resistance-associated ESR1-variant mutations detected on treatment” value (ESR1; after 2 treatment cycles, 106 mutations at baseline) is reported as 37 mutations and the “patients with all detected ESR1 mutation(s) become Not detected at C3D1” value (ESR1; [2]) is reported as 67%. For the same compound, the “patients with at least one ESR1 mutation become Not detected at C3D1” value (ESR1; [2]) was 77%, the “median PFS” value ([1]; 49 patients, second- or third-line therapy with or without prior chemotherapy) was 7.2 months and the CBR ([1]; 49 patients, second- or third-line therapy, overall) was 48%. For the same compound, the CBR [1, 3] was 59% and the PFS [1, 3] was 7.3 months.

Source: PMC12210654, “Palazestrant, a novel oral Complete Estrogen Receptor Antagonist (CERAN) and Selective Estrogen Receptor Degrader (SERD), in patients with ER+/HER2− advanced or metastatic breast cancer: phase 1/2 study results” (Breast Cancer Research : BCR, 2025)
